Source: patent US7696149B2, “Pharmaceutical administration form for peptides, process for its preparation, and use” (AEterna Zentaris GmbH, priority 2000, dated 2010)
“And” between values parts separate entries of the source, which are not always exact repeats. Equal entries are not always repeated. “Also recorded” adds a separate entry of the source. Non-standard residues stand in square brackets, D forms with d. Residues, ends and D or L forms follow the SMILES beside them. dPhe(4-Cl) = N[C@H](Cc1ccc(Cl)cc1)C(=O)O; d2Nal = N[C@H](Cc1ccc2ccccc2c1)C(=O)O; dCit = NC(=O)NCCC[C@@H](N)C(=O)O; d3Pal = N[C@H](Cc1cccnc1)C(=O)O

What was measured:
[1] = Rat animal experiment: cetrorelix residual content in the muscle 168 h after injection; assay type: in vivo; details: for Cetrorelix content in the muscle (168 h), % of the dose: rat
Experimental: (§1) After reconstitution of these lyophilizates, the solutions (2.5 mg/ml of cetrorelix) are investgated in the following tests for aggregate formation and release behaviour: • Polarization microscopy (pol. mic.): days without aggregation. • Filterability in %: • Cetrorelix solutions are prepared according to a standardized procedure and filtered through 0.22 μm or 0.45 μm filters by means of centrifugation. The concentration of cetrorelix in the filtrate is determined by HPLC and indicated as a % value, based on the starting concentration before filtration (filterability in %). • in-vitro release form (RRS, release in Ringer's solution): • % released after 1 h and after 6 h. • The in-vitro release behaviour is determined at 37° C. in a flow procedure using Ringer's solution as medium. The concentration measurement is carried out by HPLC. Cetrorelix samples, corresponding to 10 mg of cetrorelix base, are weighed into the flow cell, mixed with 4 ml of water and stirred for 10 min.
(§2) In the further rat muscle experiments shown in Table 9, in addition to the residual content in the muscle, the cetrorelix content in the plasma was additionally determined.

[2] = Rat muscle experiment: cetrorelix content in the plasma; assay type: in vivo
Excerpt: as §2

[3] = Optical appearance of cetrorelix acetate solutions with excipients; assay type: physicochemical
[4] = In-vitro release in Ringer's solution (RRS), flow procedure at 37° C.; assay type: physicochemical
Experimental: as §1, with “([…])” for “(2.5 mg/ml of cetrorelix)”

[5] = Polarization microscopy: aggregation of cetrorelix solutions (days without aggregation); assay type: physicochemical
Experimental: By means of polarization microscopy, aggregation investigations were carried out on solutions of various cetrorelix salts without or with addition of excipients.
In the polarization light microscope with crossed polarizers, aggregated peptide solutions show images which are very similar to those of liquid-crystalline structures. In contrast to this, aggregate-free peptide solutions produce no such effects.
as §1, with “([…])” for “(2.5 mg/ml of cetrorelix)”

[6] = dose 1.5 mg/kg, inj. soln 3 mg/ml
[7] = Cremophor ® EL 5.00%, cetrorelix 2.5 mg/ml
[8] = Cremophor ® EL 10.00%, cetrorelix 2.5 mg/ml
[9] = Cremophor ® EL 20.00%, cetrorelix 2.5 mg/ml
[10] = Cremophor ® EL 20.00%, cetrorelix 5 mg/ml
[11] = Galacturonic acid 2.50%, cetrorelix 2.5 mg/ml, pH 2.6
[12] = Glucaric acid 2.50%, cetrorelix 2.5 mg/ml, pH 2.5
[13] = L-glutamic acid 0.80%, cetrorelix 2.5 mg/ml, pH 3.8
[14] = Solutol ® HS 15 5.00%, cetrorelix 2.5 mg/ml
[15] = Solutol ® HS 15 10.00%, cetrorelix 2.5 mg/ml
[16] = Solutol ® HS 15 20.00%, cetrorelix 2.5 mg/ml
[17] = dose 1.5 mg/kg, inj. soln 3 mg/ml, listed as Acetate
[18] = dose 3.0 mg/kg, inj. soln 15 mg/ml
[19] = conc. of cetrorelix from lyo 2.5 mg/ml
[20] = conc. of cetrorelix from lyo 5 mg/ml
[21] = cetrorelix 2.5 mg/ml, Kollidon 0%
[22] = cetrorelix 2.5 mg/ml, Kollidon 5%
[23] = cetrorelix 2.5 mg/ml, Kollidon 10%
[24] = cetrorelix 2.5 mg/ml, Kollidon 15%
[25] = cetrorelix 2.5 mg/ml, Kollidon 20%
[26] = cetrorelix 5 mg/ml, Kollidon 15%
[27] = cetrorelix 5 mg/ml, Kollidon 20%
[28] = conc. of cetrorelix from lyo 15 mg/ml

Compound: CC(=O)N[C@H](Cc1ccc2ccccc2c1)C(=O)N[C@H](Cc1ccc(Cl)cc1)C(=O)N[C@H](Cc1cccnc1)C(=O)N[C@@H](CO)C(=O)N[C@@H](Cc1ccc(O)cc1)C(=O)N[C@H](CCCNC(N)=O)C(=O)N[C@@H](CC(C)C)C(=O)N[C@@H](CCCNC(=N)N)C(=O)N1CCC[C@H]1C(=O)N[C@H](C)C(N)=O [Base, cetrorelix] (Ac-[d2Nal][dPhe(4-Cl)][d3Pal]SY[dCit]LRP[dA]-NH2)
- Cetrorelix content in the muscle (168 h), % of the dose [1, 6]: 27.2 % of the dose
- Cetrorelix content in the plasma, % of the dose [2, 6]: 122.2 % of the dose

Compound: CC(=O)N[C@H](Cc1ccc2ccccc2c1)C(=O)N[C@H](Cc1ccc(Cl)cc1)C(=O)N[C@H](Cc1cccnc1)C(=O)N[C@@H](CO)C(=O)N[C@@H](Cc1ccc(O)cc1)C(=O)N[C@H](CCCNC(N)=O)C(=O)N[C@@H](CC(C)C)C(=O)N[C@@H](CCCNC(=N)N)C(=O)N1CCC[C@H]1C(=O)N[C@H](C)C(N)=O [cetrorelix acetate] (Ac-[d2Nal][dPhe(4-Cl)][d3Pal]SY[dCit]LRP[dA]-NH2)
- Appearance [3, 7]: clear
- Appearance [3, 8]: clear
- Appearance [3, 9]: clear
- Appearance [3, 10]: clear,; also recorded: viscose
- Appearance [3, 11]: clear
- Appearance [3, 12]: clear
- Appearance [3, 13]: clear
- Appearance [3, 14]: clear
- Appearance [3, 15]: clear
- Appearance [3, 16]: clear
- Cetrorelix content in the muscle (168 h), % of the dose [1, 17]: 55.1 % of the dose
- Cetrorelix content in the muscle (168 h), % of the dose [1, 18]: 56.5 % of the dose
- Rat % i.m. after 168 h ([1]; residual content in the muscle, % of dose, conc. of cetrorelix 2.5 mg/ml): ~55%
- Cetrorelix content in the plasma, % of the dose [2, 17]: 92.2 % of the dose
- Cetrorelix content in the plasma, % of the dose [2, 18]: 28.7 % of the dose
- RRS, [%] after 1 h [4, 19]: 12% and 13%
- RRS, [%] after 6 h [4, 19]: 24.5% and 35.9%
- RRS, [%] after 1 h [4, 20]: 10%
- RRS, [%] after 6 h [4, 20]: 35%
- Days without aggregation ([5]; 2.5 mg/ml cetrorelix acetate, gluconic acid in reconstitution medium 0%, pH 4.7): 1 days
- Days without aggregation ([5]; 2.5 mg/ml cetrorelix acetate, gluconic acid in reconstitution medium 0.0071%, pH 4.5): 2 days
- Days without aggregation ([5]; 2.5 mg/ml cetrorelix acetate, gluconic acid in reconstitution medium 0.071%, pH 3.7): 2 days
- Days without aggregation ([5]; 2.5 mg/ml cetrorelix acetate, gluconic acid in reconstitution medium 0.71%, pH 3.1): 12 days
- Aggregation (microscopy): yes, after ... days [5, 7]: 10 days
- Aggregation (microscopy): days without aggregation [5, 8]: ≧112 days
- Aggregation (microscopy): days without aggregation [5, 9]: ≧112 days
- Aggregation (microscopy): yes, after ... day [5, 10]: yes, after 1 day
- Aggregation (microscopy): days without aggregation [5, 11]: ≧12 days
- Aggregation (microscopy): days without aggregation [5, 12]: ≧12 days
- Aggregation (microscopy): yes, after ... days [5, 13]: yes, after 2 days
- Aggregation (microscopy): yes, after ... days [5, 14]: 14 days
- Aggregation (microscopy): days without aggregation [5, 15]: ≧112 days
- Aggregation (microscopy): days without aggregation [5, 16]: ≧112 days
- Days without aggregation ([5]; acetate salt, cetrorelix 2.5 mg/ml, glucuronic acid addition: no, pH 4.7): 0 days
- Days without aggregation ([5]; acetate salt, cetrorelix 2.5 mg/ml, glucuronic acid addition: yes, pH 3.0): >21 days
- Days without aggregation ([5]; acetate salt, cetrorelix 5 mg/ml, glucuronic acid addition: yes, pH 3.0): 0 days
- Days without aggregation with Kollidon ® 12 PF [5, 21]: 0 days
- Days without aggregation with Kollidon ® 17 PF [5, 21]: 0 days
- Days without aggregation with Kollidon ® 12 PF [5, 22]: 1 days
- Days without aggregation with Kollidon ® 17 PF [5, 22]: 2 days
- Days without aggregation with Kollidon ® 12 PF [5, 23]: 1 days
- Days without aggregation with Kollidon ® 17 PF [5, 23]: 2 days
- Days without aggregation with Kollidon ® 12 PF [5, 24]: 77 days
- Days without aggregation with Kollidon ® 17 PF [5, 24]: 63 days
- Days without aggregation with Kollidon ® 12 PF [5, 25]: 84 days
- Days without aggregation with Kollidon ® 17 PF [5, 25]: 98 days
- Days without aggregation with Kollidon ® 12 PF [5, 26]: 0 days
- Days without aggregation with Kollidon ® 17 PF [5, 26]: 1 days
- Days without aggregation with Kollidon ® 12 PF [5, 27]: 0 days
- Days without aggregation with Kollidon ® 17 PF [5, 27]: 1 days
- Aggregation-free duration ([5]; cetrorelix acetate 2.5 mg/ml, 10% of α-cyclodextrin): 7 days
- Aggregation-free duration ([5]; cetrorelix acetate 2.5 mg/ml, 20% of hydroxypropyl-β-cyclodextrin): 24 days
- Aggregation-free duration ([5]; cetrorelix acetate 5 mg/ml, 10% of α-cyclodextrin): 0 days
- Aggregation-free duration ([5]; cetrorelix acetate 5 mg/ml, 20% of hydroxypropyl-β-cyclodextrin): 7 days
- Aggregation-free duration ([5]; cetrorelix acetate 7.5 mg/ml, 10% of α-cyclodextrin): 0 days
- Aggregation-free duration ([5]; cetrorelix acetate 7.5 mg/ml, 20% of hydroxypropyl-β-cyclodextrin): 10 days
- Aggregation-free duration ([5]; cetrorelix acetate 10 mg/ml, 10% of α-cyclodextrin): 0 days
- Aggregation-free duration ([5]; cetrorelix acetate 10 mg/ml, 20% of hydroxypropyl-β-cyclodextrin): 2 days
- Aggregation-free duration ([5]; cetrorelix acetate 15 mg/ml, 20% of hydroxypropyl-β-cyclodextrin): 0 days
- Aggregation-free duration ([5]; cetrorelix acetate 15 mg/ml, 20% of γ-cyclodextrin): 0 days
- Pol. mic days without aggr. [5, 19]: 0 days
- Pol. mic days without aggr. [5, 20]: 0 days

Compound: Citrate
- RRS, [%] after 1 h [4, 28]: 9%
- RRS, [%] after 6 h [4, 28]: 20.3%

Compound: Lactate
- RRS, [%] after 1 h ([4]; bulk): 20%
- RRS, [%] after 6 h ([4]; bulk): 55.2%

Compound: Phosphate
- Cetrorelix content in the muscle (168 h), % of the dose ([1]; in vivo, 1.5 mg/kg): 32.9 % of the dose
- Cetrorelix content in the plasma, % of the dose ([2]; in vivo, 1.5 mg/kg): 22.6 % of the dose

Compound: cetrorelix gluconate
- Cetrorelix content in the muscle (168 h), % of the dose ([1]; in vivo, 1.5 mg/kg): 37.9 % of the dose
- Cetrorelix content in the plasma, % of the dose ([2]; in vivo, 1.5 mg/kg): 46.9 % of the dose
- RRS, [%] after 1 h [4, 19]: 18% and 11.3%
- RRS, [%] after 6 h [4, 19]: 45.3% and 46%
- Days without aggregation ([5]; 2.5 mg/ml cetrorelix gluconate, hydroxypropyl-β-cyclodextrin 20%): 189 days
- Days without aggregation ([5]; 2.5 mg/ml cetrorelix gluconate, hydroxypropyl-β-cyclodextrin […]): 91 days
- Days without aggregation ([5]; 2.5 mg/ml cetrorelix gluconate, α-cyclodextrin 5%): 1 days
- Days without aggregation ([5]; 2.5 mg/ml cetrorelix gluconate, α-cyclodextrin 10%): 140 days
- Days without aggregation ([5]; 2.5 mg/ml cetrorelix gluconate, γ-cyclodextrin 20%): 182 days
- Days without aggregation ([5]; 2.5 mg/ml cetrorelix gluconate, γ-cyclodextrin […]): 126 days
- Days without aggregation ([5]; cetrorelix 2.5 mg/ml, gluconic acid addition: yes, pH 3.0): >30 days
- Days without aggregation ([5]; cetrorelix 5 mg/ml, gluconic acid addition: no, pH 4.7): 1 days
- Days without aggregation ([5]; cetrorelix 5 mg/ml, gluconic acid addition: no, pH 4.8): 1 days
- Days without aggregation ([5]; cetrorelix 5 mg/ml, gluconic acid addition: yes, pH 3.6): 4 days
- Days without aggregation ([5]; cetrorelix 5 mg/ml, gluconic acid addition: yes, pH 3.8): 4 days
- Days without aggregation ([5]; cetrorelix 7.5 mg/ml, gluconic acid addition: no, pH 4.7): 0 days
- Days without aggregation ([5]; cetrorelix 7.5 mg/ml, gluconic acid addition: no, pH 4.8): 0 days
- Days without aggregation ([5]; cetrorelix 7.5 mg/ml, gluconic acid addition: yes, pH 3.4): 1 days
- Days without aggregation ([5]; cetrorelix 7.5 mg/ml, gluconic acid addition: yes, pH 3.7): 1 days

Compound: cetrorelix glucuronate
- Cetrorelix content in the muscle (168 h), % of the dose ([1]; in vivo, 1.5 mg/kg): 16.5 % of the dose
- Cetrorelix content in the muscle (168 h), % of the dose ([1]; in vivo, 3 mg/kg): 18.8 % of the dose
- Cetrorelix content in the plasma, % of the dose ([2]; in vivo, 1.5 mg/kg): 78.6 % of the dose
- Days without aggregation ([5]; glucuronate salt, cetrorelix 2.5 mg/ml, glucuronic acid addition: no, pH 4.5): 3 days
- Days without aggregation ([5]; glucuronate salt, cetrorelix 2.5 mg/ml, glucuronic acid addition: yes, pH 2.9): >30 days
- Days without aggregation ([5]; glucuronate salt, cetrorelix 5 mg/ml, glucuronic acid addition: no, pH 4.6): 0 days
- Days without aggregation ([5]; glucuronate salt, cetrorelix 5 mg/ml, glucuronic acid addition: yes, pH 2.7): >30 days
